For 21 molecules, EC50 and IC50 results are on record in US10316017B2, “COT modulators and methods of use thereof” (Gilead Sciences, Inc., priority 2015, dated 2019).

The test system of test [1] is TNFα production in LPS-stimulated human monocytes. The test is described as follows: Cot Monocyte TNFα Cell Based Assay. The note with it: Homo sapiens, Monocyte, TNFα in LPS-stimulated human monocytes; read-out: EC50 TNF. The essentials:
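Human monocytes (5,000 cells/well) pretreated with compound for 1 hour at 37° C (0.5% DMSO), then stimulated with 50 pg/ml LPS for 4 hours. Total TNFα measured by TR-FRET after overnight antibody incubation at room temp, expressed as percent of control between unstimulated and stimulated cells.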

For test [2], the target named is T1, human Cot catalytic domain (30-397 amino acids) (Homo sapiens, UniProt P41279).
T1 construct: Purified recombinant human Cot catalytic domain (30-397 amino acids) was purchased from Cama Biosciences; purchased Cama Biosciences (so in the source)
T1 sequence (P41279 30-397): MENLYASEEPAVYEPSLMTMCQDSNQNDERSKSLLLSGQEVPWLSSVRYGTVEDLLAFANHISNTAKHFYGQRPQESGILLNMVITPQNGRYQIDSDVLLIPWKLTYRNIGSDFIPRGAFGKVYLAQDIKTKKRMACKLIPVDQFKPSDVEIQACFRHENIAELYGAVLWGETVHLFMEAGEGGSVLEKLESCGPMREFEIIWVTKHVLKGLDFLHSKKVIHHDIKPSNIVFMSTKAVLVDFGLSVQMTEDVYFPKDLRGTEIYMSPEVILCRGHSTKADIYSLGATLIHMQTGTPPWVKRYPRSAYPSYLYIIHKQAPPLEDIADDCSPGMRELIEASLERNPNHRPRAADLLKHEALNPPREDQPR
The test is described as follows: High Throughput Cot Biochemical Assay (KinEASE TR-FRET). To be noted: Cot KinEASE TR-FRET (HTRF) biochemical assay, 400 μM ATP; read-out: IC50 HTRF. The essentials:
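Recombinant human Cot catalytic domain (aa 30-397), 5 nM, with 1 μM STK3 peptide and 400 μM ATP in MOPS pH 7.0 buffer with MgOAc, DTT, BSA, NP-40, glycerol, 0.1% DMSO. Phosphorylated XL665-peptide detected by Eu-[…] antibody TR-FRET.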

On to `[2H][C@](Nc1cc(-c2ccc(F)nc2)c2ncc(C#N)c(NCC(C)(C)C)c2c1)(c1ccc(F)cc1)c1cn(C2CC2)nn1` [Example 139, (S)-6-(((1-cyclopropyl-1H-1,2,3-triazol-4-yl)(4-fluorophenyl)methyl-d)amino)-8-(6-fluoropyridin-3-yl)-4-(neopentylamino) quinoline-3-carbonitrile], for which, in test [1], the EC50 – broadly, the concentration that produces a half-maximal response – worked out at 276 nM. In addition, in test [2], the IC50 (in general, the concentration that gives 50% inhibition) was determined as 33 nM.

For the molecule `[2H][C@](Nc1cc(-c2ccncc2)c2ncc(C#N)c(NCC(C)(C)C)c2c1)(c1ccc(F)cc1)c1cn(C2CC2)nn1` [Example 140, (S)-6-(((1-cyclopropyl-1H-1,2,3-triazol-4-yl)(4-fluorophenyl)methyl-d)amino)-4-(neopentylamino)-8-(pyridin-4-yl)quinoline-3-carbonitrile], in test [1], the EC50 is over 10000 nM. The IC50 in test [2] was found to be 1500 nM.

As for `[2H][C@@](Nc1cc(Cl)c2ncc(C#N)c(NC3CCOCC3(C)C)c2c1)(c1cn(C2CC2)nn1)c1ccccc1Cl` (stereo partly drawn) [Example 141, 8-chloro-6-(((S)-(2-chlorophenyl)(1-cyclopropyl-1H-1,2,3-triazol-4-yl)methyl-d)amino)-4-((3,3-dimethyltetrahydro-2H-pyran-4-yl)amino) quinoline-3-carbonitrile], the EC50 in test [1] came to 72 nM. In addition, in test [2], the IC50 was 5 nM.

On to `[2H][C@](Nc1cc(Cl)c2ncc(C#N)c(NC3[C@H]4COC[C@@H]34)c2c1)(c1ccc(F)cc1)c1cn(C2CC2)nn1` (stereo partly drawn) [Example 142, 4-(((1R,5S)-3-oxabicyclo[3.1.0]hexan-6-yl)amino)-8-chloro-6-(((S)-(1-cyclopropyl-1H-1,2,3-triazol-4-yl)(4-fluorophenyl)methyl-d)amino)quinoline-3-carbonitrile], for which the EC50 in test [1] is 77 nM. Besides, in test [2], the IC50 turned out to be 8 nM.

As for `[2H][C@](Nc1cc(Cl)c2ncc(C#N)c(NC3CC34CCCCC4)c2c1)(c1ccc(F)cc1)c1cn(C2CC2)nn1` (stereo partly drawn) [Example 143, 8-chloro-6-(((S)-(1-cyclopropyl-1H-1,2,3-triazol-4-yl)(4-fluorophenyl)methyl-d)amino)-4-(spiro[2.5]octan-1-ylamino)quinoline-3-carbonitrile], in test [1], the EC50 was 1170 nM. Further, the IC50 in test [2] is 99 nM.

With `[2H][C@](Nc1cc(Cl)c2ncc(C#N)c(N[C@@H]3CCOCC3(C)C)c2c1)(c1ccc(F)cc1)c1cn(C2CC2)nn1` [Example 146, 8-chloro-6-(((S)-(1-cyclopropyl-1H-1,2,3-triazol-yl)(4-fluorophenyl)methyl-d)amino)-4-(((R)-3,3-dimethyltetrahydro-2H-pyran-4-yl)amino) quinoline-3-carbonitrile], the EC50 in test [1] came to 895 nM. Also, in test [2], the IC50 amounted to 95 nM.

With `[2H][C@](Nc1cc(Cl)c2ncc(C#N)c(NCCc3nccs3)c2c1)(c1ccc(F)cc1)c1cn(C2CC2)nn1` [Example 147, (S)-8-chloro-6-(((1-cyclopropyl-1H-1,2,3-triazol-4-yl)(4-fluorophenyl)methyl-d)amino)-4-((2-(thiazol-2-yl)ethyl)amino) quinoline-3-carbonitrile], the concentration giving a half-maximal response (EC50) in test [1] is 3610 nM. Moreover, the half-inhibitory concentration (IC50) in test [2] was 254 nM.

For the molecule `[2H][C@](Nc1cc(Cl)c2ncc(C#N)c(NCCc3ccn(C)n3)c2c1)(c1ccc(F)cc1)c1cn(C2CC2)nn1` [Example 148, (S)-8-chloro-6-(((1-cyclopropyl-1H-1,2,3-triazol-4-yl)(4-fluorophenyl)methyl-d)amino)-4-((2-(1-methyl-1H-pyrazol-3-yl)ethyl)amino) quinoline-3-carbonitrile], in test [1], the EC50 came out at 8670 nM. Further, the half-inhibitory concentration (IC50) in test [2] amounted to 2140 nM.

`[2H][C@](Nc1cc(Cl)c2ncc(C#N)c(NCCc3ccnn3C)c2c1)(c1ccc(F)cc1)c1cn(C2CC2)nn1` [Example 149, (S)-8-chloro-6-(((1-cyclopropyl-1H-1,2,3-triazol-4-yl)(4-fluorophenyl)methyl-d)amino)-4-((2-(1-methyl-1H-pyrazol-5-yl)ethyl)amino) quinoline-3-carbonitrile]: the half-maximal effective concentration (EC50) in test [1] was found to be 2110 nM. Also, the IC50 in test [2] amounted to 162 nM.

For the molecule `[2H][C@](Nc1ccc2nc(F)c(C#N)c(NCC(C)(C)C)c2c1)(c1ccc(F)cc1)c1cn(C2CC2)nn1` [Example 151, (S)-6-(((1-cyclopropyl-1H-1,2,3-triazol-4-yl)(4-fluorophenyl)methyl-d)amino)-2-fluoro-4-(neopentylamino) quinoline-3-carbonitrile], in test [1], the EC50 is 5870 nM. Also, the IC50 in test [2] is over 10000 nM.

`[2H][C@@](Nc1cc(C#N)c2ncc(C#N)c(NCC(C)(C)C)c2c1)(c1cn(C2CC2)nn1)c1ccccc1Cl` [Example 152, (S)-6-(((2-chlorophenyl) (1-cyclopropyl-1H-1,2,3-triazol-4-yl)methyl-d)amino)-4-(neopentylamino) quinoline-3,8-dicarbonitrile]: in test [1], the EC50 was 213 nM. Besides, the IC50 in test [2] came to 7 nM.

With `[2H][C@](Nc1cc(Cl)c2ncc(C#N)c(NC34CC(C3)C4)c2c1)(c1ccc(F)cc1)c1cn(C2CC2)nn1` [Example 153, (S)-4-(bicyclo[1.1.1]pentan-1-ylamino)-8-chloro-6-(((1-cyclopropyl-1H-1,2,3-triazol-4-yl)(4-fluorophenyl)methyl-d)amino)quinoline-3-carbonitrile], in test [1], the EC50 came to 892 nM. For the same molecule, the IC50 in test [2] was 196 nM.

For the molecule `[2H][C@](Nc1cc(Cl)c2ncc(C#N)c(N[C@@H]3C[C@H]3C(F)(F)F)c2c1)(c1ccc(F)cc1)c1cn(C2CC2)nn1` [Example 154, 8-chloro-6-(((S)-(1-cyclopropyl-1H-1,2,3-triazol-4-yl)(4-fluorophenyl)methyl-d)amino)-4-(((1R,2R)-2-(trifluoromethyl)cyclopropyl)amino)quinoline-3-carbonitrile], in test [1], the EC50 came to 576 nM. In addition, the IC50 in test [2] was found to be 39 nM.

`[2H][C@](Nc1cc(Cl)c2ncc(C#N)c(N[C@@H]3C[C@H]3CC)c2c1)(c1ccc(F)cc1)c1cn(C2CC2)nn1` [Example 155, 8-chloro-6-(((S)-(1-cyclopropyl-1H-1,2,3-triazol-4-yl)(4-fluorophenyl)methyl-d)amino)-4-(((1R,2R)-2-ethylcyclopropyl)amino)quinoline-3-carbonitrile]: the EC50 in test [1] turned out to be 348 nM. Further, the IC50 in test [2] was determined as 36 nM.

Turning to `[2H][C@](Nc1cc(Cl)c2ncc(C#N)c(NC3CC3(C)C)c2c1)(c1ccc(F)cc1)c1cn(C2CC2)nn1` (stereo partly drawn) [Example 156, 8-chloro-6-(((S)-(1-cyclopropyl-1H-1,2,3-triazol-4-yl)(4-fluorophenyl)methyl-d)amino)-4-((2,2-dimethylcyclopropyl)amino)quinoline-3-carbonitrile], the EC50 in test [1] is 477 nM. Besides, in test [2], the IC50 amounted to 30 nM.

Take `[2H][C@](Nc1cc2c(NCC(C)(C)C)c(C#N)cnc2c(C)c1F)(c1ccc(F)cc1)c1cn(C2CC2)nn1` [Example 157, 6-(((1-cyclopropyl-1H-1,2,3-triazol-4-yl)(4-fluorophenyl)methyl-d)amino)-7-fluoro-8-methyl-4-(neopentylamino) quinoline-3-carbonitrile]: the EC50 in test [1] was over 10000 nM. Moreover, in test [2], the IC50 turned out to be 3740 nM.

Take `[2H][C@](Nc1cc(Cl)c2ncc(C#N)c(Nc3cccc(Cl)c3C)c2c1)(c1ccc(F)cc1)c1cn(C2CC2)nn1` [Example 159, (S)-8-chloro-4-((3-chloro-2-methylphenyl)amino)-6-(((1-cyclopropyl-1H-1,2,3-triazol-4-yl)(4-fluorophenyl)methyl-d)amino)quinoline-3-carbonitrile]: the EC50 in test [1] was found to be 1340 nM. The IC50 in test [2] was 114 nM.

Take `[2H][C@](Nc1cc(Cl)c2ncc(C#N)c(Nc3ccccc3OC)c2c1)(c1ccc(F)cc1)c1cn(C2CC2)nn1` [Example 160, (S)-8-chloro-6-(((1-cyclopropyl-1H-1,2,3-triazol-4-yl)(4-fluorophenyl)methyl-d)amino)-4-((2-methoxyphenyl)amino)quinoline-3-carbonitrile]: the 50% effective concentration (EC50) in test [1] turned out to be 3260 nM. Besides, in test [2], the half-maximal inhibitory concentration (IC50) was 496 nM.

Turning to `[2H][C@](Nc1cc(Cl)c2ncc(C#N)c(N[C@H](c3ccccc3)[C@H]3C[C@@H]3C#N)c2c1)(c1ccc(F)cc1)c1cn(C2CC2)nn1` [Example 161, 8-chloro-4-(((S)-((1S,2S)-2-cyanocyclopropyl) (phenyl)methyl)amino)-6-(((S)-(1-cyclopropyl-1H-1,2,3-triazol-4-yl)(4-fluorophenyl)methyl-d)amino) quinoline-3-carbonitrile], the concentration for a half-maximal effect (EC50) in test [1] was over 10000 nM. Also, the IC50 in test [2] turned out to be 941 nM.

Turning to `[2H][C@](Nc1cc(Cl)c2ncc(C#N)c(N[C@H](c3ccccc3)[C@@H]3C[C@H]3C#N)c2c1)(c1ccc(F)cc1)c1cn(C2CC2)nn1` [Example 162, 8-chloro-4-(((S)-((1R,2R)-2-cyanocyclopropyl) (phenyl)methyl)amino)-6-(((S)-(1-cyclopropyl-1H-1,2,3-triazol-4-yl)(4-fluorophenyl)methyl-d)amino)quinoline-3-carbonitrile], the EC50 in test [1] was over 10000 nM. Besides, in test [2], the IC50 was 7890 nM.

Turning to `[2H][C@](Nc1cc(Cl)c2ncc(C#N)c(Nc3cccc(Cl)c3OC)c2c1)(c1ccc(F)cc1)c1cn(C2CC2)nn1` [Example 163, (S)-8-chloro-4-((3-chloro-2-methoxyphenyl)amino)-6-(((1-cyclopropyl-1H-1,2,3-triazol-4-yl)(4-fluorophenyl)methyl-d)amino)quinoline-3-carbonitrile], in test [1], the concentration for a half-maximal effect (EC50) came out at 170 nM. Moreover, the IC50 in test [2] worked out at 3 nM.
